Bridge positions count the residues as written; N and C are the ends. Square brackets hold non-standard residues; d marks the D form. Peptide text beside a SMILES is read from it. I, II: the chains in the order shown. * marks the point of attachment. DOTA = O=C(O)CN1CCN(CC(=O)O)CCN(CC(=O)*)CCN(CC(=O)O)CC1; Nle = CCCC[C@H](N)C(=O)O; Dap = NC[C@H](N)C(=O)O
What was measured:
NPY Y1 receptor [1] = molecular target: T1, NPY Y1 receptor (Homo sapiens, UniProt P25929); assay: Forskolin-stimulated adenylate cyclase activity (cAMP flashplate assay) in SK-N-MC cells; format: cell-based; details: 10 μM forskolin; for Functional assay cAMP for Y1: analog 20 μM alone or with 100 nM [Leu31,Pro34]-hPYY
T1 construct: SK-N-MC cells endogenously expressing Y1; host or cells: SK-N-MC
T1 sequence (P25929 1-384): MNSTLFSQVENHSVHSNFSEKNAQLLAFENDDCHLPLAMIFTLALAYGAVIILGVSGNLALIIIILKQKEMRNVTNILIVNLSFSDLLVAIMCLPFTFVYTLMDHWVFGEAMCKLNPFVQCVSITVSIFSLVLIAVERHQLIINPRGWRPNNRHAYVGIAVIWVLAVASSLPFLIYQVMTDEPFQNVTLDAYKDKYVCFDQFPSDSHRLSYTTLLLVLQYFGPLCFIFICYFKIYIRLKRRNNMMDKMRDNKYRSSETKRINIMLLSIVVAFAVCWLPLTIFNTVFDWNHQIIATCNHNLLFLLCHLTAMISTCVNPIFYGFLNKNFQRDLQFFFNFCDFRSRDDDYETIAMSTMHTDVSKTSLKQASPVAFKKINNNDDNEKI
Experimental: Adenylate cyclase activity was determined in SK-N-MC cells using the adenylate cyclase activation flashplate assay (SMP004) from PerkinElmer (Waltham, MA, USA). SK-N-MC cells were seeded in 96-well culture plates at 25,000 cells/well and cultured for 48 h at 37°C and 5% CO2. Culture medium was then removed from the wells and fresh medium (100 μL) containing 0.5 mM 3-isobutyl-1-methylxanthine (IBMX) was added to each well. Cells were incubated for 30 min at 37°C. Medium was then removed and replaced with fresh medium containing 0.5 mM IBMX, with or without 10 μM forskolin and various concentrations of the peptides to be analyzed. Cells were incubated for 30 min at 37°C. After removal of the medium, cells were lysed and cAMP accumulation was determined using the SMP004 kit from PerkinElmer according to the instructions of the manufacturers.
Figure 4 Effect of various Y1 affine analogs on forskolin-stimulated intracellular cAMP accumulation in SK-N-MC cells. Cells were incubated for 30 min with 10 μM forskolin either alone, or with 10 μM forskolin in the presence of 20 μM or 100 nM of the reference compound [Leu^31, Pro^34]-PYY (LP-PYY), or with 10 μM forskolin in the presence of the various Y1 affine analogs either alone at a concentration of 20 μM or at a concentration of 20 μM in the presence of 100 nM LP-PYY. Intracellular cAMP accumulation was then determined as described in Methods. Results are shown as percentage of the 10 μM forskolin effect on intracellular cAMP accumulation.
Cells were incubated for 30 min with 10 μM forskolin in the presence of [Leu^31, Pro^34]-PYY (LP-PYY) at concentrations ranging between 0.01 nM and 20 μM alone (solid circle) or with 10 μM forskolin in the presence of LP-PYY at concentrations ranging between 0.01 nM and 20 μM supplemented with a fixed concentration of 20 μM of the analog 11 (solid square). […] Compound 11 given alone at a concentration of 20 μM has no effect on the accumulation of forskolin-stimulated cAMP (solid triangle).

Y5 = tested on: Y5; design: method as in PMID 12182951; details: rats, in vivo; cited from earlier work
NPY Y2 receptor = molecular target: T2, NPY Y2 receptor (Homo sapiens, UniProt P49146); assay: Receptor autoradiography competition binding (125I-hPYY) on SH-SY5Y cell membrane pellet sections; details: SH-SY5Y membrane pellets, 125I-hPYY displacement; n ≥ 3; read-out: Binding affinity Y2 (IC50)
T2 construct: SH-SY5Y cells endogenously expressing Y2; endogenous in cells; host or cells: SH-SY5Y
T2 sequence (P49146 1-381): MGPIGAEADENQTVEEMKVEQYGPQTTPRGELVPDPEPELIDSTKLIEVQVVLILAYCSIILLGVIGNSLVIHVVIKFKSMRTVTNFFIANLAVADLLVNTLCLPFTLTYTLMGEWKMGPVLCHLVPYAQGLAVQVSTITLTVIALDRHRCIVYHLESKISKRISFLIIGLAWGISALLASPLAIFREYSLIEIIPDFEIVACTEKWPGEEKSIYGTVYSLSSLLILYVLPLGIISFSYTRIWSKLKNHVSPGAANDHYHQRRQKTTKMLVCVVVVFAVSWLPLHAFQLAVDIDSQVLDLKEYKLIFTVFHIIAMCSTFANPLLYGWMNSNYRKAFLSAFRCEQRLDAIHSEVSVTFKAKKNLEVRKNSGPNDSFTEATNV
Experimental: (§1) The neuroepithelioma cell line SK-N-MC endogenously expressing the NPY Y1 receptor was obtained from ATCC (HTB-10; LGC Standards, Teddington, Middlesex, UK) and cultured at 37°C and 5% CO2 in MEM with GlutaMax I and supplemented with 10% FBS, 100 U/ml penicillin and 100 μg/ml streptomycin, 1 mM MEM sodium pyruvate, and MEM non-essential amino acids (× 1). The neuroblastoma cell line SH-SY5Y endogenously expressing the NPY Y2 receptor, kindly provided by Dr. Paolo Paganetti (Novartis, Basel, Switzerland), was cultured at 37°C and 5% CO2 in MEM/Ham's F12 with GlutaMax I and supplemented with 10% FBS, 100 U/ml penicillin and 100 μg/ml streptomycin, 1 mM MEM sodium pyruvate, and MEM non-essential amino acids (× 1). All culture reagents were from Gibco BRL, Life Technologies, (Grand Island, NY, USA).
(§2) Binding affinities of the compounds were assessed using sections of cell membrane pellets of SK-N-MC for Y1 or SH-SY5Y for Y2, as described before. Briefly, membrane pellets were prepared and stored at -80°C, and receptor autoradiography was performed on 20-μm-thick cryostat (Microm HM 500, Walldorf, Germany) sections of the membrane pellets, mounted on microscope slides and stored at -20°C as previously described for other cell lines and receptors. The slides were preincubated in Krebs-Ringer solution (NaCl 119 mM, KCl 3.2 mM, KH2PO4 1.19 mM, MgSO4 1.19 mM, NaHCO3 25 mM, CaCl2 2.53 mM, D-glucose 10 mM; pH 7.4) for 60 min at room temperature. Then, they were incubated for 120 min in the incubation solution containing the Krebs-Ringer solution, 0.1% BSA, 0.05% bacitracin, and 10,000 cpm/100 μl of the ^125I-labeled human PYY (hPYY; 2,000 Ci/mmol; Anawa, Wangen, Switzerland). Membrane pellet sections were incubated with ^125I-hPYY in increasing concentrations ranging from 0.1 nM up to 1,000 nM of non-labeled hPYY, as control, or with the compounds to be tested. After the incubation, the slides were washed two times for 5 min and then rinsed four times in ice-cold preincubation solution. After drying, the slides were exposed to Kodak films Biomax MR® for 7 days. IC50 values were calculated after quantification of the data using a computer-assisted image processing system (Analysis Imaging System, Interfocus, Mering, Germany). Tissue standards (autoradiographic [^125I] and/or [^14C] microscales, GE Healthcare, Little Chalfont, UK) containing a known amount of isotope, cross-calibrated to tissue-equivalent ligand concentrations were used for quantification.

NPY Y1 receptor [2] = molecular target: T1, NPY Y1 receptor; assay: Receptor autoradiography competition binding (125I-hPYY) on SK-N-MC cell membrane pellet sections; details: for Y1 binding affinity in words (displacement of 125I-hPYY): SK-N-MC cell membrane pellet sections; for IC50: SK-N-MC membrane pellets, 125I-hPYY displacement, mean ± SEM, n ≥ 3, read-out: Binding affinity Y1 (IC50)
Experimental: as §1, §2

[Leu^31, Pro^34]-hPYY [reference compound]
Inhibition of forskolin-stimulated cAMP accumulation by agonist (NPY Y1 receptor [1]; agonist at 20 μM and 100 nM): efficiently inhibited forskolin-stimulated cAMP accumulation

Bis(31/31')[Cys^31, Nva^34]NPY(27-36)-NH2
Stimulation of food intake (Y5): able to stimulate in vivo the food intake in rats

CCCC[C@H](NC(=O)[C@H](CCCNC(=N)N)NC(=O)[C@H](Cc1c[nH]c2ccccc12)NC(=O)[C@H](CSSC[C@H](NC(=O)[C@@H]1CCCN1C(=O)[C@H](CC(N)=O)NC(=O)[C@@H](N)[C@@H](C)CC)C(=O)N[C@@H](Cc1c[nH]c2ccccc12)C(=O)N[C@@H](CCCNC(=N)N)C(=O)N[C@@H](CCCC)C(=O)N[C@@H](CCCNC(=N)N)C(=O)N[C@@H](Cc1ccc(O)cc1)C(N)=O)NC(=O)[C@@H]1CCCN1C(=O)[C@H](CCCCNC(=O)CN1CCN(CC(=O)O)CCN(CC(=O)O)CCN(CC(=O)O)CC1)NC(=O)[C@@H](N)[C@@H](C)CC)C(=O)N[C@@H](CCCNC(=N)N)C(=O)N[C@@H](Cc1ccc(O)cc1)C(N)=O [Analog 11] (I: H-IK(DOTA)PCWR[Nle]RY-NH2 / II: H-INPCWR[Nle]RY-NH2; disulfide I:4-II:4)
IC50 (NPY Y2 receptor): > 1000 nM | Y1 binding affinity in words (displacement of 125I-hPYY) (NPY Y1 receptor [2]): high-affinity displacements of ^125I-hPYY | IC50 (NPY Y1 receptor [2]): 13 ± 3 nM | Shift of the dose response curve of [Leu31,Pro34]-hPYY to the right (NPY Y1 receptor [1]; 20 μM analog with increasing concentration of [Leu31,Pro34]-hPYY up to 20 μM): at least three orders of magnitude | Functional assay cAMP for Y1 (NPY Y1 receptor [1]): Antagonist | Inhibition of forskolin-stimulated cAMP accumulation, analog given alone (NPY Y1 receptor [1]; analog alone at 20 μM): has no effect

CCCC[C@H](NC(=O)[C@H](CCCNC(=N)N)NC(=O)[C@H](Cc1c[nH]c2ccccc12)NC(=O)[C@H](CSSC[C@H](NC(=O)[C@@H]1CCCN1C(=O)[C@H](CC(N)=O)NC(=O)[C@@H](N)[C@@H](C)CC)C(=O)N[C@@H](Cc1c[nH]c2ccccc12)C(=O)N[C@@H](CCCNC(=N)N)C(=O)N[C@@H](CCCC)C(=O)N[C@@H](CCCNC(=N)N)C(=O)N[C@@H](Cc1ccc(O)cc1)C(N)=O)NC(=O)[C@@H]1CCCN1C(=O)[C@H](CNC(=O)CN1CCN(CC(=O)O)CCN(CC(=O)O)CCN(CC(=O)O)CC1)NC(=O)[C@@H](N)[C@@H](C)CC)C(=O)N[C@@H](CCCNC(=N)N)C(=O)N[C@@H](Cc1ccc(O)cc1)C(N)=O [Analog 8] (I: H-I[Dap](DOTA)PCWR[Nle]RY-NH2 / II: H-INPCWR[Nle]RY-NH2; disulfide I:4-II:4)
IC50 (NPY Y2 receptor): > 1000 nM | IC50 (NPY Y1 receptor [2]): 29 ± 7 nM

CCCC[C@H](NC(=O)[C@H](CCCNC(=N)N)NC(=O)[C@H](Cc1c[nH]c2ccccc12)NC(=O)[C@H](CSSC[C@H](NC(=O)[C@@H]1CCCN1C(=O)[C@H](CCCCNC(=O)CN1CCN(CC(=O)O)CCN(CC(=O)O)CCN(CC(=O)O)CC1)NC(=O)[C@@H](N)[C@@H](C)CC)C(=O)N[C@@H](Cc1c[nH]c2ccccc12)C(=O)N[C@@H](CCCNC(=N)N)C(=O)N[C@@H](CCCC)C(=O)N[C@@H](CCCNC(=N)N)C(=O)N[C@@H](Cc1ccc(O)cc1)C(N)=O)NC(=O)[C@@H]1CCCN1C(=O)[C@H](CCCCNC(=O)CN1CCN(CC(=O)O)CCN(CC(=O)O)CCN(CC(=O)O)CC1)NC(=O)[C@@H](N)[C@@H](C)CC)C(=O)N[C@@H](CCCNC(=N)N)C(=O)N[C@@H](Cc1ccc(O)cc1)C(N)=O [Analog 10] (I: H-IK(DOTA)PCWR[Nle]RY-NH2 / II: H-IK(DOTA)PCWR[Nle]RY-NH2; disulfide I:4-II:4)
IC50 (NPY Y2 receptor): > 1000 nM | Y1 binding affinity in words (displacement of 125I-hPYY) (NPY Y1 receptor [2]): lower affinity displacements of ^125I-hPYY | IC50 (NPY Y1 receptor [2]): 283 ± 52 nM | Functional assay cAMP for Y1 (NPY Y1 receptor [1]): Antagonist

Source: paper PMC3250963, “Novel dimeric DOTA-coupled peptidic Y1-receptor antagonists for targeting of neuropeptide Y receptor-expressing cancers” (EJNMMI Research, 2011)
